Test results taken from patent publication US10456434B2, “Extracts obtained from cell line cultures from plants belonging to the Oleaceae family (e.g. Syringa vulgaris), their preparation and use” (CRODA ITALIANA S. P. A., priority 2005, dated 2019).

How the values were obtained:
[1] = test system: A549 cells; assay: Oxidative stress (ROS, DCF fluorescence) in A549 cell cultures; assay type: cell-based, human; conditions: 20 mM, A549, galactose oxidative stress
Protocol: 10×10^5 A549 cells (ATCC-CCL195) have been seeded into wells with 3 ml of DMEM/medium (HAM'S F12K) with 10% FCS and incubated at 37° C. in a 5% CO2, water vapour saturated atmosphere. After 24 hours the culture medium is replaced by medium supplemented with 5.55 mM galactose, which is left in contact with the cells for 20 hours. The medium is once again replaced with medium containing galactose in the presence or absence of the test compound. After 5 hours, quantitative measurement of the ROSs is performed by washing the cells with phosphate buffer and then incubating them with 30 μM DCF-DA in buffer solution. At the end of a 15 minute incubation, excess DCF-DA is removed from the cells by washing, prior to measuring the fluorescence emitted.
Antioxidant activity measurements are performed using a (Hitachi F3010) spectrophotometer with excitation at 488 nm and measuring emission at 525 nm, and values are expressed in pmoles, by extrapolation from the calibration curve constructed using known quantities of DCF, in relation to total cellular protein. Values are thus expressed in % ages with respect to the ROS, content of the cells not subjected to oxidative stress, to which are assigned a value of 100.
Syringa vulgaris Extracts 1 and 2 and ascorbic acid have been dissolved in phosphate buffer.

[2] = Peroxynitrite assay (SIN-1, PTIO spin trap, ESR); assay type: biochemical; conditions: mean of 6 independent assays
Description: The superoxide anion has been measured by a chemiluminescent assay based on the hypoxanthine (HPX)/xanthine oxidase (XOD) reaction using the Lumimax Superoxide Anion Detection Kit (Stratagene, La Jolla, Calif., USA) and following the manufacturer's instructions. Hydroxyl radical scavenger activity has been measured by means of the Fenton reaction for the production of hydroxyl radicals and chemiluminescent dosage (using a Victor^3 chemiluminometer, Wallac, Finland) with luminol. Peroxynitrite ions have been determined by means of dosage with a spontaneous generator of peroxynitrites (3-morpholinosidnonimine hydrochloride; SIN-1) and a stable reagent for the nitroxyl ions (2-(4-carboxyphenyl)-4,4,5,5-tetramethylimidazoline-1-oxyl-3-oxide potassium salt PTIO spin trap) then dosed by means of electron spin resonance (ESR) using a. Nippon Denshi JES-FR30.
Extract 1 and Extract 2 listed in Table are derived from Syringa vulgaris cell cultures. […] The results are expressed as the concentration inhibiting 50% of activity (IC50). The values reported are the means of 6 independent assays.

C[C@@H]1O[C@@H](O[C@@H]2[C@@H](O)[C@H](OCCc3ccc(O)c(O)c3)O[C@H](CO)[C@H]2OC(=O)/C=C/c2ccc(O)c(O)c2)[C@H](O)[C@H](O)[C@H]1O [Verbascoside, b-(3,4-dihydroxyphenyl)-ethyl-O-α-L-ramnopyranosyl (1″-3′)-b-D-(4′-O-caffeoil)-glucopyranoside]
ROS level (%) [1]: 85 ± 7 %
Peroxynitrite radical (IC50) [2]: 1.6 µg/mL
